Assay results: US20160243080A1, “FORMULATIONS OF ANGIOTENSIN RECEPTOR BLOCKERS” (priority 2015, published 2016)
Entries after “also recorded” stand apart in the source; their conditions may differ. Like-named read-outs stand apart in the source and are kept apart here.

Assays:
wounds of AT2R^−/− mice = assay: Wound healing in AT2R^−/− mice; assay type: in vivo, mouse
Description: Pharmacologically, ARBs and ACE inhibitors differ on their mechanism of action and the level at which they block RAS. While ARBs block RAS distally at the AT1R level, ACEi block the conversion of Angiotensin I to Angiotensin II and thereby diminishing available Angiotensin II to bind to either AT1R or AT2Rs. […] Collagen is a marker for assessing skin strength.

[1] = cited from earlier work
[2] = assay type: in vivo; conditions: body weight, blood pressure, blood glucose, serum chemistry and hematology
Description: Prior to this study, selected male animals had been castrated and fitted with vascular access ports (VAP) for diabetic induction. After these animals had fully recovered from VAP procedures, diabetes was chemically-induced using alloxan. Following induction, the glucose levels of the animals was monitored and regulated with Vetsulin (or equivalent). A glucometer and/or other appropriate device was used to determine glucose levels of the animals. VAP procedures, diabetic induction, and recovery periods were conducted under a separate SRC standard protocol prior to the initiation of this study. Glucose levels of all study animals were monitored and regulated at least once daily during the study to keep within targeted glucose range (target 200 to 600 mg/dL). Blood pressure was determined for each animal on Days 7, 8, 18, and 57 (prior to termination).
General in-cage/pen observations for mortality/moribundity were made at least daily.
Animals were weighed once during acclimation (Day −1) and again prior to termination (Day 57).
Day −5 (acclimation), Day 10 (pre-dose), Day 18 (pre-dose) and Day 57 (prior to termination); blood samples for CBC and serum chemistries were collected for clinical pathology analysis from each animal and analyzed by SRC. • Hematology: Blood samples (3 mL/animal) were collected from all animals. K3EDTA was used as anticoagulant. […]

in vivo = conditions: Yucatan miniature swine, pig
Description: Plasma standards and samples (50 μL) were extracted in 500 μL methanol containing 100 nM losartan (internal standard). Extracts were centrifuged at 16000×g for 5 minutes at 4° C. to precipitate proteins. Extracts (500 μL) were transferred to a new tube and dried in vacuum at 45° C. for 90 minutes. Samples were reconstituted in 30% acetonitrile in water (50 μL) and centrifuged as above. Supernatants (45 μL) were transferred to a 96 well plate. Analytes (10 μL) were separated on an Agilent 1290 UPLC system with a c18 column using a gradient run of 50-95% acetonitrile over 2 minutes at 0.4 mL/minute and detected on an Agilent 6520 QTOF mass spectrometer. Standards within the quantifiable range were used to generate a standard curve.
Prior to surgery (Day 0), Day 10 (pre-dose), Day 18 (pre-dose), and Day 57 (prior to termination); blood samples (3 mL/animal) were collected, processed to plasma by centrifuging for approximately 15 minutes at 3000 rpm at 4° C., transferred into labeled cryovials, immediately frozen on dry ice, and shipped to the sponsor for future analysis.

Smad3 = assay: Immunohistochemistry of Smads in wounds of aged diabetic pigs; assay type: in vivo; conditions: pig wounds, vs placebo
Description: (§1) Although not completely characterized, wound healing is greatly influenced by subtle changes of transforming growth factor-beta (TGF-β) superfamily, which is strongly influenced by RAS. TGF-β signaling mediate the phosphorylation of Smad family proteins. Phosphorylated Smads then translocate to the nucleus with the common-mediator (co-Smad) Smad4. Additionally, Smad activity is also regulated by phosphorylation through non-receptor kinases such as p42/44 mitogen activating protein kinase (MAPK) and p38 MAPK. In chronic wounds, failure of TGF-β Smad 2 and 3 phosphorylation and reduction in p42/44 MAPK activity was associated with a slower proliferative rate and impaired healing. RAS has been tightly linked to TGFβ activity but the specific effects of AT1R on the different Smads during wound healing are not known.

Smad1 = assay: as above; assay type: in vivo; conditions: pig wounds, vs placebo
Description: as §1

Smad2 = assay: as above; assay type: in vivo; conditions: pig wounds, vs placebo
Description: as §1

[3] = tested on: phosphorylated Smad1, 5 and 9; assay: as above; assay type: in vivo; conditions: pig wounds, vs placebo
Description: as §1

[4] = tested on: 5 cm full-thickness circular excisional wounds; assay: Wound healing in aged diabetic Yucatan miniature swine: digital photography, planimetry, image analysis; assay type: in vivo, Sus scrofa
Description: Both gels are applied daily. • Wound measurements: On a daily basis, planimetry and digital photography are conducted to assess changes in wound size. • Upon complete closure: Healed wound tissue is collected and analyzed. The study had two treatment groups, which consisted of a test article treatment or a vehicle control treatment on three diabetic (alloxan-induced) Yucatan miniature swine. The acclimation period was 7 days. On Day 0, each study animal underwent surgery to create 8 (4 per side) 5 cm full-thickness circular excisional wounds on their dorsal surface. All wounds were initially topically treated with the same (Treatment A) compound once daily for the first 7 days (Day 0 through Day 6). Thereafter, 4 wounds per animal received daily topical administration of Treatment B, and the other 4 wounds received Treatment C for the duration of the study. All wound sites (8 per animal) were covered with one dressing type. All wounds were observed/evaluated up through final sample collection (Day 57). The experimental study design, including treatment groups and wound sites/time points, and variables to be evaluated and intervals are presented in Tables 1 through 3. On Day 0, the dorso-lateral back area of each animal was closely clipped with electric clippers. Each animal was prepared for surgery using alternating disinfecting scrubs and isopropyl alcohol rinses. The surgical area was draped and a sufficiently large hole(s) was created within the drape(s). The proposed wound sites were outlined using a sterile template and sterile marker. […] Refer to FIG. 3. • a. Using a surgical blade, eight 5 cm full-thickness circular excisional wounds were created (down to the fat layer). All excised tissue from each wound site was discarded. • b. Direct pressure was utilized to obtain hemostasis. • c. […] Each animal was monitored until it had completely recovered from the anesthesia. […] Each animal was monitored until it had completely recovered from anesthesia (if employed). […]

[5] = tested on: healing skin of aged diabetic pigs; assay: Tensiometry of healed pig skin; assay type: in vivo; conditions: vs placebo
Description: At termination, an approximately 8 mm×16 mm tensiometry sample was collected from the dorsal side of each wound site that spanned the cranial to caudal aspect of the wound for analysis. This procedure was performed and data maintained by sponsor personnel. No details of analysis or results were included in this in-life report. […] Using Mason Trichrome (FIG. 22, panels A-H) and H&E stains (FIG. 22, panel I). Collagen content and other histological changes in healing skin were examined. Tensiometry was employed to quantify differences in tensile strength between placebo and valsartan treated wounds.

AT2R mRNA = assay: mRNA expression in treated mouse wounds; assay type: in vivo
[6] = tested on: healing skin of aged diabetic pigs; assay: Masson's trichrome and H&E staining of skin sections from aged diabetic pigs; assay type: in vivo, pig
Description: Using Mason Trichrome (FIG. 22, panels A-H) and H&E stains (FIG. 22, panel I). Collagen content and other histological changes in healing skin were examined. Tensiometry was employed to quantify differences in tensile strength between placebo and valsartan treated wounds.

mitochondrial Cox IV = assay: Mitochondrial content in aged diabetic pig wounds; assay type: in vivo
Description: (§2) An increase in a-SMA and phosphorylated VEGF Receptor 2 was also observed. Finally, the inventors have previously reported the presence of a functional mitochondrial angiotensin system within the mitochondria that played a role in mitochondrial bioenergetics regulation.

wound = assay: Diabetic mouse and pig wound models, timing of topical application (summary statements); assay type: in vivo; conditions: first 1-7 days after wounding
[7] = tested on: wounds of diabetic (Leprdb) mice; assay: Mouse model wound healing experiments, planimetric wound closure; assay type: in vivo; conditions: topical, applied from 7 days after wounding (proliferation/remodeling phase)
Description: In FIG. 11, the “ratio” (y-axis) reflects the percentage of wound closure as compared to the wound size on day 7 in the same animal.

VEGF Receptor 2 = assay: Proliferation and angiogenesis markers in aged diabetic pig wounds; assay type: in vivo
Description: as §2

p42/44 MAPK = assay: as above; assay type: in vivo
Description: as §2

[8] = tested on: alpha-smooth muscle actin (α-SMA); assay: as above; assay type: in vivo
Description: as §2

TGFβ3 mRNA = assay: mRNA expression in treated mouse wounds; assay type: in vivo; conditions: P<0.05

CCCCC(=O)N(Cc1ccc(-c2ccccc2-c2nnn[nH]2)cc1)[C@H](C(=O)O)C(C)C [valsartan]
wound healing / wound closure in AT2R^−/− mice (wounds of AT2R^−/− mice): delayed healing
expected blood level of Valsartan in a human on oral Valsartan [1]: 4 to 5 µM
tolerability / adverse animal health effects [2]: no observed adverse animal health effects
concentration at 57 day (in vivo): < 1 nM
Smad3 expression (Smad3): higher expression
phosphorylated Smad3 (Smad3): higher expression
Smad3 expression (Smad3; listed as topical Valsartan): activated
phosphorylated Smad3 (Smad3; listed as topical Valsartan): increase in phosphorylated Smad3
Smad1 expression (Smad1): decrease in the expression
Smad1 expression (Smad1; listed as topical Valsartan): inhibited
Smad2 expression (Smad2): decrease in the expression
Smad2 expression (Smad2; listed as topical Valsartan): inhibited
Smad1, 5, 9 phosphorylation [3]: decreased; also recorded: decrease in the expression
epithelization (automated digital analysis of wound images) ([4]; aged diabetic pigs, vs placebo): higher rates of epithelization
slough at the wound base (automated digital analysis of wound images) ([4]; aged diabetic pigs, vs placebo): lower accumulation of slough at the wound base; also recorded: clearance of slough
healing rate / wound closure rate (planimetry) as compared to placebo ([4]; diabetic pigs, daily topical from Day 7, 57 days): faster wound closure rates
tensile strength of healing skin [5]: higher tensile strength
AT2R mRNA (AT2R mRNA): statistically non-significant increase
zone of dermal collagen [6]: expanded zone of dermal collagen
dermal collagen layer thickness ([6]; P<0.001 vs placebo): 6±0.2 mm
epidermal layer thickness ([6]; P<0.001 vs placebo): 192±11 μm
collagen fiber arrangement (ultrastructural analysis) ([6]; vs placebo): more organized collagen fiber arrangement
mitochondrial Cox IV / mitochondrial numbers (mitochondrial Cox IV): significant increase in the mitochondrial numbers
mitochondrial Cox IV / mitochondrial numbers (mitochondrial Cox IV; listed as topical Valsartan): increase in mitochondrial COX IV
wound healing when applied during the inflammatory phase (wound): made the wounds bigger
wound healing when applied during the inflammatory phase (wound; listed as topical valsartan): significantly impaired wound healing
wound healing / wound closure [7]: more efficacious in accelerating wound healing compared to losartan
phosphorylated VEGF Receptor 2 (VEGF Receptor 2): increase
phosphorylation of p42/44 MAPK (p42/44 MAPK): enhanced phosphorylation of p42/44 MAPK
α-SMA [8]: increase
decrease in TGFβ3 mRNA (TGFβ3 mRNA): 0.6 fold
